In patent US10021877B2, “Substituted 5-hydroxy-2,3-diphenylpentanonitrile derivatives, processes for their preparation and their use as herbicides and/or plant growth regulators” (BAYER CROPSCIENCE AKTIENGESELLSCHAFT, priority 2013, dated 2018):

System: PHBPU=Pharbitis purpurea
Test: Biological tests (herbicidal action) against PHBPU
Assay type: in vivo
Conditions: application rate 320 g/ha
Excerpt: Seeds of monocotyledonous and dicotyledonous weed plants and crop plants were placed in wood-fibre pots in sandy loam and covered with soil. The compounds (I) according to the invention, formulated in the form of wettable powders (WP), were then applied as aqueous suspension or emulsion at a water application rate of 600 l/ha (converted) with the addition of 0.2% of wetting agent to the surface of the covering soil.
After the treatment, the pots were placed in a greenhouse and kept under good growth conditions for the test plants. After about 3 weeks, the effect was scored visually in comparison with untreated controls as percentages. For example, 100% activity=the plants have died, 50% herbicidal activity or damage=the plants have been reduced by 50% or the plant mass has been reduced by 50%, 0% activity=like control plants.
Seeds of monocotyledonous and dicotyledonous weeds and crop plants were placed in sandy loam in wood-fibre pots, covered with soil and cultivated in a greenhouse under good growth conditions. […]
What was determined was the respective herbicidal activity, in each case at the same point in time after application of the formulation in question. i.e. the damage to the respective harmful plant in %.

In the case of `CC(=O)OCCC(c1cc(F)ccc1F)C(C#N)c1ccc(F)c(Br)c1` (mixture of isomers) [Ibb52], the “herbicidal activity against PHBPU” value is reported as 100%.
For `N#C[C@@H](c1cccc(F)c1)[C@@H](CCO)c1ccc(Cl)cc1` [threo-1-Iba354], the “herbicidal activity against PHBPU” value was 80%.
